# Reference: PMC3859723 (Biochemistry, 2013)
# Tests used:
# [1] = target: R. sphaeroides cytochrome c oxidase (RsCcO) wild-type (Cereibacter sphaeroides, UniProt P33517+Q03736); assay: biochemical; type: biochemical, Rhodobacter sphaeroides; details: for Shape of response in ligand titration: activation at low ligand concentration followed by inhibition at higher concentration
# RsCcO E101A mutant [2] = target: T1, RsCcO E101A mutant (Cereibacter sphaeroides, UniProt P33517+Q03736, E101A); details: cited from earlier work
# T1 sequence (P33517 whole entry): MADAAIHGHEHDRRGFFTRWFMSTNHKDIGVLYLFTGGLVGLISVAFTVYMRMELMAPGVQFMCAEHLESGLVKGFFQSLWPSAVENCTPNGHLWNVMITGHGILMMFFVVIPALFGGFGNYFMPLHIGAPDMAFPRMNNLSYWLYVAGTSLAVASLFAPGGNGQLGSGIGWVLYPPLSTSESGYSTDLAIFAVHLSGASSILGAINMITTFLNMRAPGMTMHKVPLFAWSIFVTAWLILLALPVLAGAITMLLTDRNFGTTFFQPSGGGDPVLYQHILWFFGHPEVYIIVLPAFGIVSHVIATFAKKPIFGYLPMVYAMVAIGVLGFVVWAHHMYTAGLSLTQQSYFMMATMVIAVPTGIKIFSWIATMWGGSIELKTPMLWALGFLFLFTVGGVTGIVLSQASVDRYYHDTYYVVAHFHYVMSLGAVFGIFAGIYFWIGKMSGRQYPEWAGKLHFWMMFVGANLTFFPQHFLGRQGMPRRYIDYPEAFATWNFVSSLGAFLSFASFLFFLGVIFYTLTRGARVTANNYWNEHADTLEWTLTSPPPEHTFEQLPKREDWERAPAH
# T1 sequence (Q03736 26-303 E101A): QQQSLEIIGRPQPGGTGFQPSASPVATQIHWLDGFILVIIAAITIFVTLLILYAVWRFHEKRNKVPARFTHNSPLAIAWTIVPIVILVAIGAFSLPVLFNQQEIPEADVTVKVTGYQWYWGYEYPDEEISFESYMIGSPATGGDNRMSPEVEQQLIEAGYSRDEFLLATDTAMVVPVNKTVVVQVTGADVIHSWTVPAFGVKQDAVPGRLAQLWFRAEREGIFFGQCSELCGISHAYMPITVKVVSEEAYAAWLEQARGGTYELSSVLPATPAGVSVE
# RsCcO E101A mutant [3] = target: T1, RsCcO E101A mutant; assay: biochemical; parameters: species or system Rhodobacter sphaeroides
# Chain of R. sphaeroides cytochrome c oxidase (RsCcO) wild-type (P33517 whole entry): as the sequence (P33517 whole entry) above
# Chain of R. sphaeroides cytochrome c oxidase (RsCcO) wild-type (Q03736 26-303): as the sequence (Q03736 26-303 E101A) above, with A76E counted along it
compound,measurement,setting,value
CC(C)=CCC/C(C)=C/CC/C(C)=C/CO[P@@](=O)(O)OP(=O)(O)O (stereo in doubt) [farnesyl diphosphate],Effect on RsCcO activity at maximal ligand concentration,"[1]; WT, saturating cytochrome c",no significant effect
Nc1ncnc2c1ncn2[C@@H]1O[C@H](COP(=O)(O)OP(=O)(O)O)[C@@H](O)[C@H]1O [ADP],Effect on RsCcO activity at maximal ligand concentration,"[1]; WT, saturating cytochrome c",no significant effect
"Nc1ncnc2c1ncn2[C@@H]1O[C@H](COP(=O)(O)OP(=O)(O)NP(=O)(O)O)[C@@H](O)[C@H]1O [ATP analog, adenosine 5′-(β, γ-imido) triphosphate]",Competition with DOC inhibition of RsCcO,"[1]; WT, 5 mM ATP analog, DOC 0–2 mM, saturating cytochrome c",prevented DOC in the 0–2 mM range from inhibiting RsCcO activity
same,Effect of ligand alone on RsCcO activity,"[1]; WT, 5 mM ligand, saturating cytochrome c",no effect
same,Shape of response in ligand titration,"[1]; WT, saturating cytochrome c",biphasic response
same,Effect on E101A mutant activity,RsCcO E101A mutant [2],very low stimulation and no inhibition of activity
"C[C@H](CCC(=O)O)[C@H]1CC[C@H]2[C@@H]3CC[C@@H]4C[C@H](O)CC[C@]4(C)[C@H]3C[C@H](O)[C@]12C [DOC, deoxycholate]",IC50,[1],1.4 mM
same,Mode of inhibition with respect to cytochrome c,"[1]; WT, 0–30 μM cytochrome c",noncompetitive inhibition
same,Maximal lowering of RsCcO activity,"[1]; WT, saturating cytochrome c",more than 90%
same,Mode of inhibition with respect to cytochrome c,"RsCcO E101A mutant [3]; E101A mutant, 0–30 μM cytochrome c",noncompetitive inhibition
Cc1cc2nc3c(=O)[nH]c(=O)nc-3n(C[C@H](O)[C@H](O)[C@H](O)COP(=O)(O)OP(=O)(O)OC[C@H]3O[C@@H](n4cnc5c(N)ncnc54)[C@H](O)[C@@H]3O)c2cc1C [FAD],Effect on RsCcO activity at maximal ligand concentration,"[1]; WT, saturating cytochrome c",no significant effect
"CC(=O)O[C@H]1C[C@@]2(C)[C@@H](C[C@@H](O)[C@H]3[C@@]4(C)CC[C@@H](O)[C@@H](C)[C@@H]4CC[C@@]32C)/C1=C(\CCC=C(C)C)C(=O)O [Fusidic acid, fusidic acid]",IC50,[1],3.4 mM
same,Ki,[1],2.5 mM
same,Shape of response in ligand titration,"[1]; WT, saturating cytochrome c",biphasic response
Nc1nc2c(ncn2[C@@H]2O[C@H](COP(=O)(O)OP(=O)(O)O)[C@@H](O)[C@H]2O)c(=O)[nH]1 [GDP],Effect on E101A mutant activity,RsCcO E101A mutant [2],very low stimulation and no inhibition of activity
NC(=O)c1ccc[n+]([C@@H]2O[C@H](COP(=O)([O-])OP(=O)(O)OC[C@H]3O[C@@H](n4cnc5c(N)ncnc54)[C@H](O)[C@@H]3O)[C@@H](O)[C@H]2O)c1 [NAD^+],Effect on RsCcO under low or high concentrations of cytochrome c,"[1]; WT, 0–30 μM cytochrome c",failed to affect RsCcO
same,Effect on RsCcO activity at maximal ligand concentration,"[1]; WT, saturating cytochrome c",no significant effect
C[C@]12CCC(=O)C=C1CC[C@@H]1[C@@H]2[C@@H](O)C[C@]2(C=O)[C@@H](C(=O)CO)CC[C@@H]12 [aldosterone],Effect on RsCcO under low or high concentrations of cytochrome c,"[1]; WT, 0–30 μM cytochrome c",failed to affect RsCcO
same,Effect on RsCcO activity at maximal ligand concentration,"[1]; WT, saturating cytochrome c",no significant effect
C[C@]12CC[C@@H]3c4ccc(O)cc4CC[C@H]3[C@@H]1CC[C@@H]2O [estradiol],Effect on RsCcO under low or high concentrations of cytochrome c,"[1]; WT, 0–30 μM cytochrome c",failed to affect RsCcO
same,Effect on RsCcO activity at maximal ligand concentration,"[1]; WT, saturating cytochrome c",no significant effect
C[C@]12CCC(=O)C=C1CC[C@@H]1[C@@H]2[C@@H](O)C[C@@]2(C)[C@H]1CC[C@]2(O)C(=O)CO [hydrocortisone],Effect on RsCcO under low or high concentrations of cytochrome c,"[1]; WT, 0–30 μM cytochrome c",failed to affect RsCcO
same,Effect on RsCcO activity at maximal ligand concentration,"[1]; WT, saturating cytochrome c",no significant effect
CC1=C(/C=C/C(C)=C/C=C/C(C)=C/C(=O)O)C(C)(C)CCC1 [retinoic acid],IC50,[1],1.7 mM
same,Ki,[1],0.14 mM
same,Shape of response in ligand titration,"[1]; WT, saturating cytochrome c",biphasic response
same,IC50,RsCcO E101A mutant [3],0.19 mM
C[C@]12CC[C@H]3[C@@H](CCC4=CC(=O)CC[C@@]43C)[C@@H]1CC[C@@H]2O [testosterone],Effect on RsCcO under low or high concentrations of cytochrome c,"[1]; WT, 0–30 μM cytochrome c",failed to affect RsCcO
same,Effect on RsCcO activity at maximal ligand concentration,"[1]; WT, saturating cytochrome c",no significant effect
cytochrome c: purified bovine heart cytochrome c used as the substrate,Km,"[1]; read-out: Km of cytochrome c, RsCcO WT and E101A, unchanged by DOC inhibition",~1 µM
